Experimental data reported in patent publication US11091471B2, “Isoxazolyl ether derivatives as GABAA α5 PAM” (Hoffmann-La Roche Inc., priority 2016, dated 2021).

Target: T1, h-GABA-A α5β3γ2 (Homo sapiens (Human), UniProt P18507+P31644)
Assay: [3H]flumazenil competition binding assay, membranes of HEK293 cells expressing human GABAA receptors
Conditions: Table 1, displacement of [3H]-Flumazenil 0.5 nM, mean of two determinations
Procedure: The affinity of compounds at GABAA receptor subtypes was measured by competition for [3H]flumazenil (85 Ci/mmol; Roche) binding to HEK293 cells expressing rat (stably transfected) or human (transiently transfected) receptors of composition α1β3γ2, α2β3γ2, α3β3γ2 and α5β3γ2.
Cell pellets were suspended in Krebs-tris buffer (4.8 mM KCl, 1.2 mM CaCl2, 1.2 mM MgCl2, 120 mM NaCl, 15 mM Tris; pH 7.5; binding assay buffer), homogenized by polytron for ca. 20 sec on ice and centrifuged for 60 min at 4° C. (50000 g; Sorvall, rotor: SM24=20000 rpm). The cell pellets were resuspended in Krebs-tris buffer and homogenized by polytron for ca. 15 sec on ice. Protein was measured (Bradford method, Bio-Rad) and aliquots of 1 mL were prepared and stored at 80° C.
Assays were incubated to equilibrium for 1 hour at 4° C. and harvested onto GF/C uni-filters (Packard) by filtration using a Packard harvester and washing with ice-cold wash buffer (50 mM Tris; pH 7.5). After drying, filter-retained radioactivity was detected by liquid scintillation counting. Ki values were calculated using Excel-Fit (Microsoft) and are the means of two determinations.

SMILES	Ki [nM]
Cc1ccc(-c2noc(C)c2COc2ccc(C(=O)NC3(C)CCOC3)nn2)cn1 (racemic) [Example 75, (RS)-6-((5-methyl-3-(6-methylpyridin-3-yl)isoxazol-4-yl)methoxy)-N-(3-methyltetrahydrofuran-3-yl)pyridazine-3-carboxamide]	17.4
Cc1ccc(-c2noc(C)c2COc2ccc(C(=O)N[C@@H]3CC[C@@H](O)C3)nn2)cn1 (racemic) [Example 152, N-((1RS,3RS)-3-hydroxycyclopentyl)-6-((5-methyl-3-(6-methylpyridin-3-yl)isoxazol-4-yl)methoxy)pyridazine-3-carboxamide]	5.3
Cc1ccc(-c2noc(C)c2COc2ccc(C(=O)NC(C)C(F)(F)F)nn2)cn1 (racemic) [Example 34, (RS)-6-((5-methyl-3-(6-methylpyridin-3-yl)isoxazol-4-yl)methoxy)-N-(1,1,1-trifluoropropan-2-yl)pyridazine-3-carboxamide]	13.2
Cc1ccc(-c2noc(C)c2COc2ccc(C(=O)NC3CCOC3)nn2)cn1 (racemic) [Example 45, (RS)-6-((5-methyl-3-(6-methylpyridin-3-yl)isoxazol-4-yl)methoxy)-N-(tetrahydrofuran-3-yl)pyridazine-3-carboxamide]	6.6
Cc1ccc(-c2noc(C)c2COc2ccc(C(=O)NC3CCS(=O)(=O)C3)nn2)cn1 (racemic) [Example 36, (RS)—N-(1,1-dioxothiolan-3-yl)-6-((5-methyl-3-(6-methylpyridin-3-yl)-1,2-oxazol-4-yl)methoxy)pyridazine-3-carboxamide]	5.8
Cc1ccc(-c2noc(C)c2COc2ccc(C(=O)NC3CCCOCC3)nn2)cn1 (racemic) [Example 187, (RS)-6-((5-methyl-3-(6-methylpyridin-3-yl)isoxazol-4-yl)methoxy)-N-(oxepan-4-yl)pyridazine-3-carboxamide]	14.8
Cc1ccc(-c2noc(C)c2COc2ccc(C(=O)NC(C)(C)CCS(C)(=O)=O)nn2)cn1 [Example 80, 6-((5-methyl-3-(6-methylpyridin-3-yl)isoxazol-4-yl)methoxy)-N-(2-methyl-4-(methylsulfonyl)butan-2-yl)pyridazine-3-carboxamide]	13.2

Target: T1, h-GABA-A α5β3γ2
Assay: Two-electrode voltage clamp electrophysiology in Xenopus oocytes expressing GABAA receptors, modulation of GABA EC20 current
Assay type: cell-based
Conditions: Table 1; % modulation of GABA EC20 = 100*(Fold increase−1)
Procedure: Xenopus laevis oocytes at maturation stages V-VI were used for the expression of cloned mRNA encoding GABAA receptor subunits. Oocytes ready for RNA micro-injection were bought from Ecocyte, Castrop-Rauxel, Germany and stored in modified Barth's medium (composition in mM: NaCl 88, KCl 1, NaHCO3 2.4, HEPES 10, MgSO4 0.82, CaNO3 0.33, CaCl2 0.33, pH=7.5) at 20° C. until the experiment.
Oocytes were plated in 96-well plates to be used in an automated instrument (Robo-ocyte, MultiChannelSystems, Reutlingen, Germany) for microinjection and electrophysiological recordings. Approximately 50 nl of an aqueous solution containing the RNA transcripts for the subunits of the desired GABAA receptor was injected into each oocyte.
Electrophysiological experiments were performed on days 3 to 5 after the micro-injection of mRNA. During the experiment the oocytes were constantly superfused by a solution containing (in mM) NaCl 90, KCl 1, HEPES 5, MgCl2 1, CaCl2 1 (pH 7.4). Oocytes were impaled by two glass microelectrodes (resistance: 0.4 MΩ) which were filled with a solution containing KCl 1M+K-acetate 1.5 M and voltage-clamped to −80 mV. The recordings were performed at room temperature using the Roboocyte two-electrode voltage clamp system (Multichannelsystem). After an initial equilibration period of 1.5 min GABA was added for 1.5 min at a concentration evoking approximately 20% of a maximal current response (EC20). After another rest interval of 2.5 min GABA was again added evoking a response of similar amplitude and shape. […] Current traces were recorded at a digitization rate of 10 Hz during and shortly before and after the GABA application.
Each compound and concentration was tested on at least 3 oocytes.
For the analysis, the digitized current traces of the first and second GABA response were superimposed and, if necessary, rescaled to equal maximal amplitudes. The ratio between the two responses during the time interval of test compound application was calculated point by point. The extremum of the resulting “ratio trace” was taken as the efficacy (“Fold increase”) of the compound expressed as “% modulation of GABA EC20” (100*(Fold increase−1)).

SMILES	Efficacy (GABA) % [%]
Cc1ccc(-c2noc(C)c2COc2ccc(C(=O)N[C@H]3CCCOC3)nn2)cn1 [Example 103, (S)-6-((5-methyl-3-(6-methylpyridin-3-yl)isoxazol-4-yl)methoxy)-N-(tetrahydropyran-3-yl)pyridazine-3-carboxamide]	81
Cc1ccc(-c2noc(C)c2COc2ccc(C(=O)N3C4COCC3C4)nn2)cn1 [Example 157, 3-oxa-6-azabicyclo[3.1.1]heptan-6-yl(6-((5-methyl-3-(6-methylpyridin-3-yl)isoxazol-4-yl)methoxy)pyridazin-3-yl)methanone]	76

Same assay, conditions: Table 1; GABA at EC20, test compound at approx. 30 fold its Ki, Xenopus oocytes

SMILES	Fold increase h-GABA-A α5β3γ2 oocyte
Cc1ccc(-c2noc(C)c2COc2ccc(C(=O)N[C@@H]3CC[C@@H](OCC(F)F)C3)nn2)cn1 [Example 191, N-((1R,3R)-3-(2,2-difluoroethoxy)cyclopentyl)-6-((5-methyl-3-(6-methylpyridin-3-yl)isoxazol-4-yl)methoxy)pyridazine-3-carboxamide]	1.6
Cc1ccc(-c2noc(C)c2COc2ccc(C(=O)N3CCC(F)(F)CC3)nn2)cn1 [Example 53, (4,4-difluoropiperidin-1-yl)(6-((5-methyl-3-(6-methylpyridin-3-yl)isoxazol-4-yl)methoxy)pyridazin-3-yl)methanone]	1.8
Cc1ccc(-c2noc(C)c2COc2ccc(C(=O)N[C@@]3(C)CCOC3)nn2)cn1 [Example 81, (S)-6-((5-methyl-3-(6-methylpyridin-3-yl)isoxazol-4-yl)methoxy)-N-(3-methyltetrahydrofuran-3-yl)pyridazine-3-carboxamide]	1.8
Cc1ccc(-c2noc(C)c2COc2cnc(C(=O)NC3CCC(F)(F)CC3)cn2)cn1 [Example 86, N-(4,4-difluorocyclohexyl)-5-((5-methyl-3-(6-methyl-3-pyridyl)isoxazol-4-yl)methoxy)pyrazine-2-carboxamide]	2.2
Cc1ccc(-c2noc(C)c2COc2ccc(C(=O)NCC3(C)COC3)nn2)cn1 [Example 49, 6-((5-methyl-3-(6-methylpyridin-3-yl)isoxazol-4-yl)methoxy)-N-((3-methyloxetan-3-yl)methyl)pyridazine-3-carboxamide]	1.7
Cc1ncc(-c2noc(C)c2COc2ccc(C(=O)NC3CCOCC3)cn2)cc1F [Example 143, 6-((3-(5-fluoro-6-methyl-3-pyridyl)-5-methyl-isoxazol-4-yl)methoxy)-N-tetrahydropyran-4-yl-pyridine-3-carboxamide]	1.2
Cc1onc(-c2ccc(Cl)nc2)c1COc1ccc(C(=O)NC2(C)COC2)nn1 [Example 161, 6-((3-(6-chloropyridin-3-yl)-5-methylisoxazol-4-yl)methoxy)-N-(3-methyloxetan-3-yl)pyridazine-3-carboxamide]	1.6
Cc1ccc(-c2noc(C)c2COc2ccc(C(=O)NC3CCOCC3)cn2)nn1 [Example 108, 6-((5-methyl-3-(6-methylpyridazin-3-yl)isoxazol-4-yl)methoxy)-N-tetrahydropyran-4-yl-pyridine-3-carboxamide]	1.2
CCc1onc(-c2ccc(C)nc2)c1COc1ccc(C(=O)NC2CCS(=O)(=O)CC2)cn1 [Example 120, N-(1,1-dioxidotetrahydro-2H-thiopyran-4-yl)-6-((5-ethyl-3-(6-methylpyridin-3-yl)isoxazol-4-yl)methoxy)pyridine-3-carboxamide]	2.6
CCC[C@@H](CO)NC(=O)c1cnc(OCc2c(-c3ccc(C)nc3)noc2C)cn1 [Example 14, N-((1S)-1-(hydroxymethyl)butyl)-5-((5-methyl-3-(6-methyl-3-pyridyl)isoxazol-4-yl)methoxy)pyrazine-2-carboxamide]	2.6
Cc1ccc(-c2noc(C)c2COc2ccc(C(=O)NC3CC4(COC4)C3)nn2)cn1 [Example 100, 6-((5-methyl-3-(6-methylpyridin-3-yl)isoxazol-4-yl)methoxy)-N-(2-oxaspiro[3.3]heptan-6-yl)pyridazine-3-carboxamide]	1.7

Same assay, conditions: Table 2; reference compounds, % modulation of GABA EC20

SMILES	Efficacy (GABA) % [%]
Cc1ccc(-c2noc(C)c2COc2ccc(C(=O)NC3CCOCC3)cn2)cc1 [RO-251, reference compound]	−18
Cc1onc(-c2cccnc2)c1COc1ccc(C(=O)NC2CCOCC2)nn1 [RE-A, 6-((5-methyl-3-(3-pyridyl)isoxazol-4-yl)methoxy)-N-tetrahydropyran-4-yl-pyridazine-3-carboxamide, reference compound]	−3
Cc1onc(-c2ccccn2)c1COc1ccc(C(=O)NC2CCOCC2)cn1 [RO-272, reference compound]	−32

Same assay, conditions: Table 2; reference compounds, GABAA α5β3γ2 overexpressing oocytes

SMILES	Fold increase h-GABA-A α5β3γ2 oocyte
Cc1ccc(-c2noc(C)c2COc2ccc(C(=O)NC3CCOCC3)cn2)cc1 [RO-251, reference compound]	0.82
Cc1onc(-c2cccnc2)c1COc1ccc(C(=O)NC2CCOCC2)nn1 [RE-A, 6-((5-methyl-3-(3-pyridyl)isoxazol-4-yl)methoxy)-N-tetrahydropyran-4-yl-pyridazine-3-carboxamide, reference compound]	0.97
Cc1onc(-c2ccccn2)c1COc1ccc(C(=O)NC2CCOCC2)cn1 [RO-272, reference compound]	0.68

Same assay, conditions: positive control (NAM) at a maximally effective concentration

SMILES	inhibition of the GABA-evoked current [%]
COC(=O)c1cc2c(cn1)[nH]c1ccccc12 [β-CCM, reference compound]	~50

Same assay, conditions: positive control (PAM) at a maximally effective concentration

SMILES	potentiation of the GABA-induced current [%]
Cc1ncc2n1-c1ccc(Cl)cc1C(c1ccccc1F)=NC2 [Midazolam, reference compound]	~150

Same assay, conditions: positive control at a maximally effective concentration, 3-6 oocytes per 96-well plate

SMILES	Fold increase
COC(=O)c1cc2c(cn1)[nH]c1ccccc12 [β-CCM, reference compound]	~0.5
Cc1ncc2n1-c1ccc(Cl)cc1C(c1ccccc1F)=NC2 [Midazolam, reference compound]	~2.5
